In EP1561465A2, “Methods of use of fluoroquinolone compounds against bacteria” (LG Life Sciences, Ltd., priority 1999, dated 2001):
Values after ≈ are worked out from the molar mass of the structure shown. Like-named read-outs stand apart in the source and are kept apart here.

Assays:
Assay type in all cases: cell-based
Staphylococcus aureus [1] = assay: MIC by NCCLS broth microdilution, 1100 Japanese clinical isolates 1997-1998; conditions: for MIC: Staphylococcus aureus quinolone resistant
Streptococcus pneumoniae = assay: as above; conditions: for MIC50 / MIC90 / MIC: Streptococcus pneumoniae; for MIC50: read-out: MIC50; for MIC90: read-out: MIC90; for MIC: Streptococcus pneumoniae quinolone resistant
Proteus vulgaris = assay: as above; conditions: for MIC90: read-out: MIC90
Providencia rettgeri = assay: as above
Staphylococcus aureus [2] = assay: MIC by NCCLS reference broth microdilution, 450 respiratory tract pathogens
[3] = Staphylococcus aureus oxacillin susceptible (n=41)
[4] = Staphylococcus aureus, Staphylococcus aureus oxacillin resistant (n=57)
[5] = Staphylococcus aureus, Staphylococcus aureus oxacillin susceptible (n=41)
[6] = Staphylococcus aureus, strain TMS1* (spontaneous mutant resistant to ciprofloxacin)
[7] = Staphylococcus aureus, strain TMS3, read-out: MIC
[8] = Staphylococcus aureus, strain TMS4, read-out: MIC
[9] = Staphylococcus aureus, strain TMS5, read-out: MIC
[10] = Staphylococcus aureus, strain TMS6, read-out: MIC
[11] = Streptococcus pneumoniae amoxicillin resistant (n=40)
[12] = Streptococcus pneumoniae amoxicillin susceptible (n=35)
[13] = Streptococcus pneumoniae erythromycin resistant (n=34)
[14] = Streptococcus pneumoniae erythromycin susceptible (n=11)
[15] = β-lactamase positive and erythromycin resistant (n = 10)

SMILES: NC1CCN(c2nc3c(cc2F)c(=O)c(C(=O)O)cn3-c2ccc(F)cc2F)C1 (stereo not shown) [Tosufloxacin, tosufloxacin]
- MIC90 (Staphylococcus aureus [1]; [3]): 0.125 µg/mL (≈ 0.309 µM)
- MIC Range (Staphylococcus aureus [1]; [3]): 0.016 to 1 µg/mL
- MIC50 (Staphylococcus aureus [1]; [4]): 4 µg/mL (≈ 9.89 µM)
- MIC90 (Staphylococcus aureus [1]; [4]): > 16 µg/mL
- MIC50 (Staphylococcus aureus [1]; [5]): 0.063 µg/mL (≈ 0.156 µM)
- MIC (Staphylococcus aureus [1]; [6]): 0.25 µg/mL (≈ 0.618 µM)
- MIC (Staphylococcus aureus [1]; [7]): > 16 µg/mL
- MIC (Staphylococcus aureus [1]; [8]): 4 µg/mL (≈ 9.89 µM)
- MIC (Staphylococcus aureus [1]; [9]): 4 µg/mL (≈ 9.89 µM)
- MIC (Staphylococcus aureus [1]; [10]): 2 µg/mL (≈ 4.95 µM)
- MIC Range (Streptococcus pneumoniae; [11]): 0.063 to 4 µg/mL
- MIC Range (Streptococcus pneumoniae; [12]): 0.125 to 2 µg/mL
- MIC Range (Streptococcus pneumoniae; [13]): 0.063 to 4 µg/mL
- MIC Range (Streptococcus pneumoniae; [14]): 0.125 to 0.25 µg/mL
- MIC50 (Streptococcus pneumoniae; [11]): 0.25 µg/mL (≈ 0.618 µM)
- MIC90 (Streptococcus pneumoniae; [11]): 0.25 µg/mL (≈ 0.618 µM)
- MIC50 (Streptococcus pneumoniae; [12]): 0.25 µg/mL (≈ 0.618 µM)
- MIC90 (Streptococcus pneumoniae; [12]): 0.5 µg/mL (≈ 1.24 µM)
- MIC50 (Streptococcus pneumoniae; [13]): 0.25 µg/mL (≈ 0.618 µM)
- MIC90 (Streptococcus pneumoniae; [13]): 0.25 µg/mL (≈ 0.618 µM)
- MIC50 (Streptococcus pneumoniae; [14]): 0.25 µg/mL (≈ 0.618 µM)
- MIC90 (Streptococcus pneumoniae; [14]): 0.25 µg/mL (≈ 0.618 µM)
- MIC (Streptococcus pneumoniae; strain TMS1): 0.5 µg/mL (≈ 1.24 µM)
- MIC (Streptococcus pneumoniae; strain TMS2): 8 µg/mL (≈ 19.8 µM)
- MIC50 (Proteus vulgaris; Proteus vulgaris): 0.125 µg/mL (≈ 0.309 µM)
- MIC Range (Proteus vulgaris; Proteus vulgaris (n=25)): 0.063 to 1 µg/mL
- MIC90 (Proteus vulgaris; Proteus vulgaris (n=25)): 0.5 µg/mL (≈ 1.24 µM)
- MIC50 (Providencia rettgeri; Providencia rettgeri): 0.125 µg/mL (≈ 0.309 µM)
- MIC90 (Providencia rettgeri; Providencia rettgeri (n=12)): 8 µg/mL (≈ 19.8 µM)
- MIC Range (Providencia rettgeri; Providencia rettgeri (n=12)): 0.063 to 8 µg/mL

SMILES: C[C@@H]1CN(c2c(F)c(N)c3c(=O)c(C(=O)O)cn(C4CC4)c3c2F)C[C@H](C)N1 [Sparfloxacin, sparfloxacin]
- MIC (Staphylococcus aureus [2]; Staphylococcus aureus (n = 50)): 0.06 to 1 µg/mL (≈ 0.153 to 2.55 µM)
- MIC50 (Staphylococcus aureus [2]; Staphylococcus aureus (n = 50)): 0.5 µg/mL (≈ 1.27 µM)
- MIC90 (Staphylococcus aureus [2]; Staphylococcus aureus (n = 50)): 0.5 µg/mL (≈ 1.27 µM)
- MIC (Staphylococcus aureus [2]; β-lactamase negative (n = 20)): 0.06 to 1 µg/mL (≈ 0.153 to 2.55 µM)
- MIC50 (Staphylococcus aureus [2]; β-lactamase negative (n = 20)): 0.5 µg/mL (≈ 1.27 µM)
- MIC90 (Staphylococcus aureus [2]; β-lactamase negative (n = 20)): 0.5 µg/mL (≈ 1.27 µM)
- MIC (Staphylococcus aureus [2]; β-lactamase positive (n = 20)): 0.12 to 1 µg/mL (≈ 0.306 to 2.55 µM)
- MIC50 (Staphylococcus aureus [2]; β-lactamase positive (n = 20)): 0.5 µg/mL (≈ 1.27 µM)
- MIC90 (Staphylococcus aureus [2]; β-lactamase positive (n = 20)): 0.5 µg/mL (≈ 1.27 µM)
- MIC (Staphylococcus aureus [2]; [15]): 0.25 to 1 µg/mL (≈ 0.637 to 2.55 µM)
- MIC50 (Staphylococcus aureus [2]; [15]): 0.25 µg/mL (≈ 0.637 µM)
- MIC90 (Staphylococcus aureus [2]; [15]): 0.5 µg/mL (≈ 1.27 µM)
- MIC Range (Staphylococcus aureus [1]; Staphylococcus aureus oxacillin resistant (n=57)): 0.032 to 128 µg/mL
- MIC90 (Staphylococcus aureus [1]; [3]): 0.125 µg/mL (≈ 0.319 µM)
- MIC Range (Staphylococcus aureus [1]; [3]): 0.032 to 1 µg/mL
- MIC50 (Staphylococcus aureus [1]; [4]): 4 µg/mL (≈ 10.2 µM)
- MIC90 (Staphylococcus aureus [1]; [4]): 32 µg/mL (≈ 81.5 µM)
- MIC50 (Staphylococcus aureus [1]; [5]): 0.063 µg/mL (≈ 0.161 µM)
- MIC (Staphylococcus aureus [1]; [6]): 0.125 µg/mL (≈ 0.319 µM)
- MIC (Staphylococcus aureus [1]; [7]): 128 µg/mL (≈ 326 µM)
- MIC (Staphylococcus aureus [1]; [8]): 8 µg/mL (≈ 20.4 µM)
- MIC (Staphylococcus aureus [1]; [9]): 8 µg/mL (≈ 20.4 µM)
- MIC (Staphylococcus aureus [1]; [10]): 2 µg/mL (≈ 5.1 µM)
- MIC Range (Streptococcus pneumoniae; [11]): 0.125 to 4 µg/mL
- MIC Range (Streptococcus pneumoniae; [12]): 0.032 to 4 µg/mL
- MIC Range (Streptococcus pneumoniae; [13]): 0.032 to 4 µg/mL
- MIC Range (Streptococcus pneumoniae; [14]): 0.125 to 0.25 µg/mL
- MIC50 (Streptococcus pneumoniae; [11]): 0.25 µg/mL (≈ 0.637 µM)
- MIC90 (Streptococcus pneumoniae; [11]): 0.25 µg/mL (≈ 0.637 µM)
- MIC50 (Streptococcus pneumoniae; [12]): 0.25 µg/mL (≈ 0.637 µM)
- MIC90 (Streptococcus pneumoniae; [12]): 0.5 µg/mL (≈ 1.27 µM)
- MIC50 (Streptococcus pneumoniae; [13]): 0.25 µg/mL (≈ 0.637 µM)
- MIC90 (Streptococcus pneumoniae; [13]): 0.25 µg/mL (≈ 0.637 µM)
- MIC50 (Streptococcus pneumoniae; [14]): 0.25 µg/mL (≈ 0.637 µM)
- MIC90 (Streptococcus pneumoniae; [14]): 0.25 µg/mL (≈ 0.637 µM)
- MIC (Streptococcus pneumoniae; strain TMS1): 0.5 µg/mL (≈ 1.27 µM)
- MIC (Streptococcus pneumoniae; strain TMS2): 8 µg/mL (≈ 20.4 µM)
- MIC Range (Proteus vulgaris; Proteus vulgaris (n=25)): 0.063 to 2 µg/mL
- MIC50 (Proteus vulgaris; Proteus vulgaris (n=25), read-out: MIC50): 0.25 µg/mL (≈ 0.637 µM)
- MIC90 (Proteus vulgaris; Proteus vulgaris (n=25)): 1 µg/mL (≈ 2.55 µM)
- MIC90 (Providencia rettgeri; Providencia rettgeri (n=12)): 16 µg/mL (≈ 40.8 µM)
- MIC Range (Providencia rettgeri; Providencia rettgeri (n=12)): 0.125 to 16 µg/mL
- MIC50 (Providencia rettgeri; Providencia rettgeri (n=12), read-out: MIC50): 0.25 µg/mL (≈ 0.637 µM)
